From patent US8906925B2, “Pyrido[4,3-B]indoles containing rigid moieties” (Medivation Technologies, Inc., priority 2008, dated 2014)
Where two headings read alike, the source gives them in different places.

How the values were obtained:
[1] = target: T1, human recombinant adrenergic α2C receptor (Homo sapiens, UniProt P18825); experiment: Adrenergic α2C radioligand binding ([3H]MK-912); details: compound at 1 μM
T1 construct: expressed in transfected cells; host or cells: insect Sf9 cells
T1 sequence (P18825 1-462): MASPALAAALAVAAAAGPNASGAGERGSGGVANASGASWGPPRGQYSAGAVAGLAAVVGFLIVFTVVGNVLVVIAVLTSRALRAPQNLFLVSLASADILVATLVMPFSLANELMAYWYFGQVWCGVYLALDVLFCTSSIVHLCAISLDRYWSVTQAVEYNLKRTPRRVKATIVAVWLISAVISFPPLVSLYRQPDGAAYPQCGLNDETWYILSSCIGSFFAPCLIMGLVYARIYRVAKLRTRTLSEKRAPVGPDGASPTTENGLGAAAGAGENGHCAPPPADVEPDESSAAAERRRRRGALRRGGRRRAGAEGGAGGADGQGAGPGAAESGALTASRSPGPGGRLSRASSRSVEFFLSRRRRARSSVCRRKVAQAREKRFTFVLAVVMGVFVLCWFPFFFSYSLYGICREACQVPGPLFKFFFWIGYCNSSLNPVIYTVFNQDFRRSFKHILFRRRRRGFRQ
Description: To evaluate in radioligand binding assays the activity of compounds of the invention, human recombinant adrenergic α2C receptor expressed in insect Sf9 cells (Uhlen S et al. J Pharmacol Exp Ther. 271:1558, 1994) in a modified Tris-HCl buffer (50 mM Tris-HCl, pH 7.4, 12.5 mM MgCl2, 2 mM EDTA) was used. Compounds of the invention were incubated with 1 nM [^3H]MK-912 for 60 min. at 25° C. Non-specific binding was estimated in the presence of […] WB-4101. Receptor proteins were filtered and washed, the filters were then counted to determine [^3H]MK-912 specifically bound. Compounds were screened at 1 μM or lower, using 1% DMSO as vehicle. Compounds of the invention were tested in this biochemical assay and percent inhibition of specific binding was determined.

C57B1I6J mice = experiment: Catalepsy in the mouse bar test (EPS model); type: in vivo; details: for effects on catalepsy, ANOVA: 0.03, 0.1, 0.3, 1, 3, 10, 30 oral, 30 min, 1 h, and 3 h, incl. haloperidol group
Excerpt: Antipsychotic drugs are known to induce extrapyramidal syndrome (EPS) in animals and in humans. An animal model considered to be predictive of EPS is the mouse bar test, which measures cataleptic responses to pharmacological agents.
Male C57B1I6J mice from Jackson Laboratories (Bar Harbor, Me.) were used. Mice were received at 6-weeks of age. Upon receipt, mice were assigned unique identification numbers (tail marked) and were group housed with 4 mice/cage in OptiMICE ventilated cages. All animals remained housed in groups of four during the remainder of the study. All mice were acclimated to the colony room for at least two weeks prior to testing and were subsequently tested at an average age of 8 weeks. During the period of acclimation, mice were examined on a regular basis, handled, and weighed to assure adequate health and suitability. Animals were maintained on a 12 h/12 h light/dark cycle. The room temperature was maintained between 20 and 23° C. with a relative humidity maintained between 30% and 70%. Chow and water were provided ad libitum for the duration of the study. In each test, animals were randomly assigned across treatment groups.
The following compounds were used for this study. 1) Compound No. 83, 88 or 90 (0.03, 0.1, 0.3, 1, 3, 10, 30) was dissolved in 3% Tween in PBS and administered orally at a dose volume of 10 mL/kg; 2) Haloperidol (2 mg/kg) was dissolved in 10% DMSO and administered i.p. at a dose volume of 10 mL/kg.
The front paws of a mouse were placed on a horizontal metal bar raised 2″ above a Plexiglas platform and time was recorded for up to 30 seconds per trial. The test ended when the animal's front paws returned to the platform or after 30 seconds. The test was repeated three times and the average of the three trials was reported as the intensity index of catalepsy. Antipsychotic agents such as haloperidol cause rigidity as a side effect. Animals treated with haloperidol will hold on to the bar without moving for several minutes. Mice were brought to the activity experimental room for at least 1 h acclimation to the experimental room conditions prior to testing. Following injection of either vehicle, Compound No. 83, 88 or 90, or haloperidol, catalepsy was assessed at 3 time points: 30 min, 1 h, and 3 h. At the end of each trial, the apparatus was thoroughly cleaned with 70% ethanol.
Data were analyzed by analysis of variance (ANOVA) followed by post-hoc comparisons with Fisher Tests when appropriate. An effect was considered significant if p<0.05.

[2] = percent inhibition of specific binding, read-out: Inhibition of ligand binding, Adrenergic α2C

| SMILES | inhibition at 1 µM [1, 2] | effects on catalepsy, ANOVA (C57B1I6J mice) | sedation observed in bar test (C57B1I6J mice; 30 mg/kg, oral) | further results |
| --- | --- | --- | --- | --- |
| Cc1ccc(C(O)Cn2c3c(c4cc(C)ccc42)CN(C)CC3)cc1 (racemic) [Compound 43, racemic-2-(1,2,3,4-tetrahydro-2,8-dimethylpyrido[4,3-b]indol-5-yl)-1-p-tolylethanol] | 100% |  |  | Inhibition of ligand binding, Adrenergic α2C ([1]; percent inhibition of specific binding, 1 µM): 94% |
| CCN1CCc2c(c3ccccc3n2CC(O)c2ccc(C)cc2)C1 (racemic) [Compound 44, racemic-2-(2-ethyl-1,2,3,4-tetrahydropyrido[4,3-b]indol-5-yl)-1-p-tolylethanol] | 35% |  |  |  |
| CCN1CCc2c(c3cc(C)ccc3n2CC(O)c2ccc(C)cc2)C1 (racemic) [Compound 51, racemic-2-(2-ethyl-1,2,3,4-tetrahydro-8-methylpyrido[4,3-b]indol-5-yl)-1-p-tolylethanol] | 92% |  |  |  |
| Cc1ccc(C(O)Cn2c3c(c4ccccc42)CN(C)CC3)cc1 (racemic) [Compound 53, racemic-2-(1,2,3,4-tetrahydro-2-methylpyrido[4,3-b]indol-5-yl)-1-p-tolylethanol] | 82% |  |  |  |
| C/C(=C\n1c2c(c3cc(Cl)ccc31)CN(C)CC2)c1ccc(F)cc1 [Compound 83, (E)-8-chloro-5-(2-(4-fluorophenyl)prop-1-enyl)-2,3,4,5-tetrahydro-2-methyl-1H-pyrido[4,3-b]indole] | 99% | significant treatment effect | caused sedation | sedation observed in bar test (C57B1I6J mice; 10 mg/kg, oral): also caused sedation, but at lower levels |
| C/C(=C\n1c2c(c3cc(C)ccc31)CN(C)CC2)c1ccncc1 [Compound 88, (E)-2,3,4,5-tetrahydro-2,8-dimethyl-5-(2-(pyridin-4-yl)prop-1-enyl)-1H-pyrido[4,3-b]indole] |  | significant treatment effect | caused sedation | other effects in bar test (C57B1I6J mice; doses other than 30 mg/kg, oral): No other effects |
| C/C(=C\n1c2c(c3cc(Cl)ccc31)CN(C)CC2)c1ccncc1 [Compound 90, (E)-8-chloro-2,3,4,5-tetrahydro-2-methyl-5-(2-(pyridin-4-yl)prop-1-enyl)-1H-pyrido[4,3-b]indole] |  | significant treatment effect | caused high levels of sedation | latency to hold the bar (C57B1I6J mice; 10 mg/kg, oral): increase; sedation observed in bar test (C57B1I6J mice; 10 mg/kg, oral): also caused sedation, but at lower levels |
| Cc1ccc2c(c1)c1c(n2CC#Cc2ccccn2)CCN(C)C1 [Compound No. 500, 2,3,4,5-tetrahydro-2,8-dimethyl-5-(3-(pyridin-2-yl)prop-2-ynyl)-1H-pyrido[4,3-b]indole] |  |  |  | inhibition at 1 µM ([1]; 1 nM [3H]MK-912, read-out: Inhibition of ligand binding, Adrenergic α2C (percent inhibition of specific binding)): 43% |
